Measured values as given in US20060229239A9, “Novel curcuminoid-factor VIIa constructs as suppressors of tumor growth and angiogenesis” (priority 2002, published 2006).
Marks after values point to notes of the source that are not given here.

How the values were obtained:
[1] = Cell cytotoxicity assays; format: cell-based
Method: Of several compounds examined, the succinic acid derivative aa (86% yield) was suitable since it retained 50% of the activity of EF24 in cell cytotoxicity assays. To synthesize the succinyl derivative aa of EF24, to a solution of EF24 (0.16 g, 0.5 mmol) in anhydrous CH2Cl2 (6 ml) was added succinic anhydride (0.057 g, 0.5 mmol) and Et3N (101 mg, 1 mmol). The mixture was stirred at room temperature for 3 hrs, diluted with CH2Cl2, washed twice with saturated NaHCO3 (2×10 ml) and brine, dried over anhydrous Na2SO4, and relieved of solvent by evaporation. The resulting solid was purified by flash chromatography using benzene/acetone/acetic acid (27:10:0.5) as the eluant to obtain the yellow solid aa ([…], mp 145° C., 86% yield). [drawing 15]

[2] = system: HUVECs; experiment: Neutral Red viability assay, HUVECs; format: cell-based, human; conditions: 24 hrs
Method: (§1) HUVECs, MS-1 cells and SVR cells were cultured to confluence and agents were incubated for 24 hrs. Cell viability was determined by Neutral Red assays. Among synthetic curcumin analogs, A279L, A279U and EF-15 were not cytotoxic at 20 μM. MS-I cells were murine vascular endothelial cells which were immortalized by transfection of SV40 large T antigen but are non-maligant. However, when MS-1 cells were transfected with a ras mutant gene, cells were transformed to become malignant angiosarcoma cells, (SVR cells).

[3] = system: MS-1 cells; experiment: Neutral Red viability assay, MS-1 cells; format: cell-based, murine; conditions: 24 hrs
Method: as §1

[4] = system: SVR cells; experiment: Neutral Red viability assay, SVR cells; format: cell-based, murine; conditions: 24 hrs
Method: as §1

[5] = system: tumor cells; experiment: NCI screening system, tumor cells; format: cell-based
Method: Curcumin, EF24 and cisplatin were tested against tumor cells in the NCI screening system. Curcuminoids were also added to transformed breast cancer cells and the mean growth inhibitory concentrations determined, as shown in FIG. 5.

[6] = system: normal human melanocytes; experiment: NR viability test, normal human melanocytes (no tissue factor); format: cell-based; conditions: Mean ± S.D.
Method: (§2) The Neutral Red (NR) dye viability assay, instead of the Sulforhodamine B (SRB) assay, was used. In the NR viability assay, NR dye is taken up only by viable cells, while in the SRB viability assay, viable cells are fixed by trichloracetic acid (TCA) on the plate (thus, cells are killed), and the fixed cells are stained by SRB dye.
(§3) At the termination of culture, medium was removed and 200 μl of fresh, warm medium containing 50 μg of NR/ml was added to each well in a 96-well plate. Cells were incubated at 37° for 30 mins, followed by two washes with 200 μl of PBS. The NR taken up by cells was dissolved by adding 200 μl of 0.5N HCI containing 35% ethanol. The amount of the dye in each well was read at 570 nm by an ELISA plate reader.

[7] = system: RPMI-7951; experiment: Neutral Red (NR) viability test, human melanoma RPMI-7951; format: cell-based; conditions: Mean ± S.E.
Method: as §2, §3

[8] = system: MDA-MB-231; experiment: Neutral Red (NR) viability test, human breast cancer MDA-MB-231; format: cell-based; conditions: Mean ± S.E.
Method: as §2, §3

[9] = system: MCF10; experiment: NR viability test, MCF10 normal human breast luminal ductal cell line (no tissue factor); format: cell-based; conditions: Normal Breast Cells (MCF10), Mean ± S.D.
Method: as §2, §3

[10] = system: cells with or without tissue factor on the cell surface; experiment: Cell killing in relation to tissue factor expression on the cell surface (summary); format: cell-based
Text: One aspect of the present invention provides novel compositions comprising cytotoxic compounds such as synthetic antitumor and anti-angiogenesis curcumin analogs (curcuminoids) linked to a protein delivery vehicle that can deliver the cytotoxic compoun specifically to cancer cells and vascular endothelial cells having surface-bound tissue factor. Novel compositions of the present invention can comprise a curcuminoid covalently linked to a tether which may be, but is not limited to, a dicarboxylic acid such as succinate. The tether is covalently linked to a N-terminal amino acid of a peptidyl linker such as phenylalanine-phenylalanine-arginine, the C-terminal amino acid of which comprises a methylketone. […] Preferably, the curcuminoid-tether-linker will have bonded to an amino acid of the serine protease domain of the fVIIa, thereby blocking the procoagulating activity of the novel therapeutic composition. The present invention also provides methods of synthesis of cytotoxic compound-protein conjugates. The compositions and methods of the present invention may increase the efficacy of the cytotoxic agents and decrease their side effects by delivering the agents to specific target cells. […] The conjugate EF24-FFRck-fVIIa construct of the present invention kills cancer cell lines and vascular endothelial cells, such as HUVECs, that express tissue factor on the cell surface.

[11] = system: DU145; experiment: SRB viability test, DU145 human prostate cancer cell line expressing tissue factor; format: cell-based; conditions: for O.D. 570 nm, SRB Viability Test: 48 hrs, Mean S.D.
Method: DU145 cells were plated with 2×10^4 cells/100 μl/well in a 96 well plate and cultured overnight. The cells were cultured for 48 hrs. Cultures was terminated by adding 40% TCA to a final concentration of 10%. Cells were fixed in TCA at 4° for 1 hr, washed with tap water 5 times and air dried. Sulforhodamine B (SRB) solution (100 μl) at 0.4% (w/v) in 1% acetic acid was added to each well, and the cells were incubated for 10 mins at room temperature. After staining, unbound dye was removed by washing five times with 1% acetic acid and air dried. […] Assays were performed in triplicate or quadruplicate. An asterisk (*) indicates p<0.0001 by the Student t-test (two-tailed probability). The concentration of EF24-FFRck-fVIIa was estimated based on protein concentration.

[12] = system: HUVECs; experiment: SRB viability test (NCI method), normal HUVECs not expressing tissue factor; format: cell-based, human; conditions: Mean ± S.D.

Row | SMILES | O.D 570 nm, NR Viability Test ([6]; 0.8 pM) | O.D 570 nm, NR Viability Test ([6]; 4 pM) | O.D. 570 nm, NR Viability Test ([7]; RPM17951, 1 pM) | O.D. 570 nm, NR Viability Test ([7]; RPM17951, 2 pM) | O.D. 570 nm, NR Viability Test ([8]; MDA231, 1 pM) | O.D. 570 nm, NR Viability Test ([8]; MDA231, 2 pM) | O.D 570 nm, NR Viability Test ([9]; 0.8 pM) | O.D 570 nm, NR Viability Test ([9]; 4 pM) | killing of cancer cells and normal cells regardless of tissue factor expression [10] | O.D. 570 nm, SRB Viability Test ([11]; DU145, 0.8 pM) | O.D. 570 nm, SRB Viability Test ([11]; DU145, 8 pM) | O.D. 490 nm, SRB Viability Test ([12]; 0.8 pM) | O.D. 490 nm, SRB Viability Test ([12]; 8 pM) | other results
1 | O=C(O)CCC(=O)N1C/C(=C\c2ccccc2F)C(=O)/C(=C/c2ccccc2F)C1 [aa] |  |  |  |  |  |  |  |  |  |  |  |  |  | activity retained relative to EF24 in cell cytotoxicity assays [1]: 50%
2 | COc1cc(/C=C/C(=O)CC(=O)/C=C/c2ccc(O)c(OC)c2)ccc1O [Curcumin, diferuloylmethane] |  |  |  |  |  |  |  |  |  |  |  |  |  | Neutral Red Viability Assay (% of Control) ([2]; 1 μM): 103 % of Control; Neutral Red Viability Assay (% of Control) ([2]; 20 μM): 21 % of Control; Neutral Red Viability Assay (% of Control) ([3]; 1 μM): 90 % of Control; Neutral Red Viability Assay (% of Control) ([3]; 20 μM): 3 % of Control; Neutral Red Viability Assay (% of Control) ([4]; 1 μM): 88 % of Control; Neutral Red Viability Assay (% of Control) ([4]; 20 μM): 4 % of Control
3 | O=C1/C(=C/c2ccccc2F)CNC/C1=C\c1ccccc1F [EF24, 3,5-Bis-(2-fluorobenzylidene)-piperidin-4-one] | 0.255 ± 0.009 | 0.119 ± 0.009 | 0.220 ± 0.023 | 0.119 ± 0.018 | 0.172 ± 0.020 | 0.109 ± 0.014 | 0.104 ± 0.018 | 0.091 ± 0.007 | indiscriminatingly kills | 0.391 ± 0.041 | 0.053 ± 0.025* | 0.136 ± 0.010 | 0.038 ± 0.010 | potency relative to cisplatin [5]: about 10 times; effectiveness against tumor cells compared with cisplatin or curcumin ([5]; NCI screening system, FIG. 4): significantly more effective
4 | N=C(N)NCCC[C@H](NC(=O)[C@H](Cc1ccccc1)NC(=O)[C@@H](Cc1ccccc1)NC(=O)CCC(=O)N1C/C(=C\c2ccccc2F)C(=O)/C(=C/c2ccccc2F)C1)C(=O)CCl [EF24-FFRck] | 0.252 ± 0.007 | 0.249 ± 0.015 | 0.253 ± 0.018 | 0.247 ± 0.020 | 0.191 ± 0.013 | 0.171 ± 0.009 | 0.101 ± 0.013 | 0.113 ± 0.003 | does not kill | 0.389 ± 0.021 | 0.383 ± 0.027 | 0.152 ± 0.026 | 0.160 ± 0.038 | cell killing ([11]; EF24-FFRck alone, Table 2): does not kill any cells
